Laboratory results as given in patent US4246413A, “6-Oxamorphinans” (priority 1979, dated 1981).

Tests used:
[1] = format: in vivo
[2] = oxymorphone-induced Straub tail test for antagonist activity; format: in vivo

CN1CC[C@]23COC(C)(C)C[C@H]2[C@H]1Cc1ccc(O)cc13 (racemic) [BL-6092, 3-Hydroxy-7,7,17-trimethyl-6-oxamorphinan]
Agonist Activity ED50, Mice (SC) [1]: 0.038 mg/kg

CC1(C)C[C@H]2[C@H]3Cc4ccc(O)cc4[C@@]2(CCN3CC2CC2)CO1.Cl (racemic) [BL-6097, 17-Cyclopropylmethyl-7,7-dimethyl-3-hydroxy-6-oxamorphinan Hydrochloride]
Agonist Activity ED50, Mice (PO) ([1]; PO): 0.35 mg/kg
Agonist Activity ED50, Mice (SC) [1]: 0.083 mg/kg
times as potent as morphine sulfate, orally ([1]; mice, oral, relative to morphine sulfate): about 8.9 times
ED50 ([2]; sc, read-out: subcutaneous ED50, antagonist activity): 0.8 mg/kg
times the antagonist activity of butorphanol ([2]; subcutaneous, relative to butorphanol): about 1.2 times

COc1ccc2c(c1)[C@]13CCN(C)[C@H](C2)[C@@H]1CC(C)(C)OC3.Cl (racemic) [BL-6028, 3-Methoxy-7,7,17-trimethyl-6-oxamorphinan Hydrochloride]
Agonist Activity ED50, Mice (SC) [1]: 0.053 mg/kg
